Laboratory results: PubChem BioAssay AID179 (DTP/NCI, 2004)
Several values for one entry are separate records, joined by “and”; a condition that tells them apart may be missing. Identical values can stand only once. Activity calls are given as the source filed them.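 Rule for the calls: active = compounds giving half or more protection of infected cells from virus-caused growth loss, again on retest; inactive = the rest.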 Where a SMILES comes first, the peptide text is derived from it. The star is where a group is joined. Fmoc = O=C(OCC1c2ccccc2-c2ccccc21)*; Boc = CC(C)(C)OC(=O)*; OBn = c1ccc(CO*)cc1; tBu = CC(C)(C)*

Test system: CEM cells HIV-1 protection, formazan growth assay
Experiment: NCI AIDS Antiviral Assay
Conditions: for IC50: measured here: growth of uninfected CEM cells
Summary of the method: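 Five concentrations of each compound were applied to infected and uninfected human CEM cells. Protection from HIV-1 was judged from growth measured with a soluble formazan assay.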

| SMILES | EC50 | IC50 | outcome |
| --- | --- | --- | --- |
| Cc1ccc(S(=O)(=O)OC2C3OC(C)(C)OC3OC2C2CSC(=S=O)S2)cc1 (stereo not drawn) | > 67.6 µM | > 67.6 µM | – |
| CC1(C)CC(=O)C2=C(C1)NC(SSC1=C(C#N)C(c3ccc(F)cc3)C3=C(CC(C)(C)CC3=O)N1)=C(C#N)C2c1ccc(F)cc1 (stereo not drawn) | 19.1 µM | 39.8 µM | – |
| Cc1coc(C)c1C(=S)Nc1ccc(Cl)c(C(=O)OC(C)C)c1 | 0.282 µM | 38 µM | – |
| COP(=O)(CC(=O)C1OC(C)(C)OC1C(O)COCc1ccccc1)OC (stereo not drawn) | > 324 µM | > 324 µM | – |
| C#CCSc1nnnn1-c1ccccc1 | > 200 µM | 3.24 µM | – |
| NC(Cc1ccc[se]1)C(=O)O (stereo not drawn) | > 200 µM | > 200 µM | – |
| NC(N)=NS(=O)(=O)c1ccc(Nc2c3ccccc3nc3c(C(=O)NCCO)cccc23)cc1 | > 200 µM | 8.91 µM | – |
| CC(=O)OCCCCn1cnc2nc(Nc3ccccc3)nc(Cl)c21 | > 200 µM | 135 µM | – |
| Cc1ccc(C(=O)O)c(/C=C2\Cc3ccc(C)cc3C2=O)c1 | > 200 µM | 97.7 µM | – |
| Cc1ccc(C2(c3ccc(F)cc3)OC(=O)c3ccccc32)c(O)c1 (stereo not drawn) | – | – | inactive |
| O=c1[nH]c(=O)n(C2OC(CO)C(O)C2O)c2ncncc12 (stereo not drawn) | > 200 µM | > 200 µM | – |
| O=C1c2ccccc2C(=O)N1CC[P+](c1ccccc1)(c1ccccc1)c1ccccc1 | > 200 µM | > 200 µM and 107 µM | – |
| [B-][N+]1(C)CC[N+]([B-])(C)CC1 (stereo not drawn) | > 200 µM | > 200 µM | – |
| OCC(O)C(O)C(O)c1nn(-c2ccccc2)c2nc3cc(Cl)c(Cl)cc3nc12 (stereo not drawn) | – | – | inactive |
| C=CCc1ccccc1CC1(OCC)OC(=O)c2ccccc21 (stereo not drawn) | > 43.7 µM | > 43.7 µM | – |
| O=C1NC(=S)N/C1=C\c1ccco1 | > 200 µM | 105 µM | – |
| CCOC(=O)c1cc(C)nc2c1c(=O)n(-c1ccccc1)c(=O)n2CCCCN1CCN(c2ncccn2)CC1 | > 200 µM | 107 µM | – |
| CN(C)c1ccc(Cc2cc3c(O)ccc(O)c3cc(Cc3ccc(N(C)C)cc3)c2=O)cc1 | > 200 µM | 3.16 µM | – |
| O=C(Nc1ccccc1)c1c(O)[nH]c(=S)[nH]c1=O | 11.2 µM | 21.4 µM | – |
| c1ccc(OCC[P+](c2ccccc2)(c2ccccc2)c2ccccc2)cc1 | > 200 µM | 0.501 µM | – |
| CCOC(=O)c1nc2ccccc2nc1Nc1cc(OC)c(OC)c(OC)c1 | > 200 µM | > 200 µM | – |
| CC(Oc1ccc2c(-c3ccc(Cl)cc3)cc(=O)oc2c1)C(=O)O (stereo not drawn) | – | – | inactive |

| SMILES | EC50 | IC50 | outcome |
| --- | --- | --- | --- |
| CC(OC(C)(C)C)C(NC(=O)OCC1c2ccccc2-c2ccccc21)C(=O)NC(Cc1ccccc1)C(=O)OCc1ccccc1 (stereo not drawn) (Fmoc-Thr(tBu)-Phe-OBn; configuration not given here) | > 200 µM | > 200 µM | – |
| COc1ccc(CN2CCCN(Cc3ccc(OC)cc3)C2c2ccccc2O)cc1 | > 200 µM | 50.1 µM | – |
| CC(CC(=O)N1C(=O)C(C)(C)[C@@H](O)[C@H]1CC(C)C(Cl)(Cl)Cl)C(Cl)(Cl)Cl (stereo partly drawn) | – | – | inactive |
| CC(C)=CCCC(C)C1=C(O)C(=O)C(C)=CC1=O (stereo not drawn) | > 2 µM | 0.589 µM | – |
| Cc1cc(Cl)ccc1Nc1nc2c(s1)C(=O)c1ccccc1C2=O | – | – | inactive |
| C/C(=N\NC(N)=O)C(CN(C)C)C(c1ccccc1)c1c(O)c2ccccc2oc1=O (stereo not drawn) | > 91.2 µM | 66.1 µM | – |
| OC1(c2cccc(Cl)c2)C2=NCCCN2c2ccccc21 (stereo not drawn) | – | – | inactive |
| COc1ccc(-c2cc(C3CC3)nc(SCC(=O)O)c2C#N)cc1 | > 200 µM | 39.8 µM | – |
| COc1ccc(/C=C(/C(=O)c2ccc(Cl)cc2)N2C=CC=CC2=C(C#N)C#N)cc1OC | > 20 µM | 0.117 µM | – |
| CCCCCCCC1=NN(c2ccc(S(=O)(=O)O)cc2)C(=O)C1N=O (stereo not drawn) | > 200 µM | > 200 µM | – |
| NC1=CN2c3ccccc3N(CC(=O)N3CCOCC3)C2C=C1 (stereo not drawn) | > 200 µM | > 200 µM | – |
| O=C(NN1C(=O)C(Cl)C1c1c(O)ccc2ccccc12)c1ccccc1O (stereo not drawn) | > 67.6 µM | > 67.6 µM | – |
| COCCOCCOCCOCCOCCOCCOCCOCCOCCOCCOCCOCCOCCOCCOCCOCCOCC(=O)N(CCn1cnc2nc(NC(=O)c3ccccc3)[nH]c(=O)c21)CCn1cnc2nc(NC(=O)c3ccccc3)[nH]c(=O)c21 | 1.32 µM | 47.9 µM | – |
| Cn1c(SSc2ccc(-c3cccnc3)n2C)ccc1-c1cccnc1 | > 200 µM | 1.86 µM and 2.45 µM | – |
| O=C(Cc1ccccc1)NC(=O)Nc1ccccc1 | > 20.4 µM | > 20.4 µM | – |
| COc1ccc(/C(Nc2ccccc2)=C(\CCl)c2ccccc2)cc1OC | > 200 µM | 31.6 µM | – |
| O=C(O)CC(NC(=O)/C(=C/c1ccccc1O)NC(=O)c1ccccc1)C(=O)O (stereo not drawn) | > 200 µM | 110 µM | – |
| CCCCCC(=O)OC1CN2CC[C@H](O)C2C(O)[C@@H]1O (stereo partly drawn) | – | – | inactive |
| CCOC(=O)COc1ccc(OCC(=O)OCC)c2c1C(=O)CCCC2=O | – | – | inactive |
| S=c1nc[nH]c2nc[nH]c12 | > 234 µM | 1.51 µM | – |
| Clc1c(Cl)c2c(Cl)c(Cl)c1C[P+](c1ccccc1)(c1ccccc1)CC[P+](c1ccccc1)(c1ccccc1)Cc1c(Cl)c(Cl)c(c(Cl)c1Cl)C[P+](c1ccccc1)(c1ccccc1)CC[P+](c1ccccc1)(c1ccccc1)C2 | > 66.1 µM | 4.68 µM | – |
| NC(=O)c1coc(C2OC(CO)C(O)C2O)n1 (stereo not drawn) | > 1020 µM | > 1020 µM | – |

| SMILES | EC50 | IC50 | outcome |
| --- | --- | --- | --- |
| COc1ccc(OC)c2c(=O)c3ccccc3[nH]c12 | – | – | inactive |
| O=C1CCCCC/C1=C\c1cccc([N+](=O)[O-])c1 | > 200 µM | 23.4 µM | – |
| CC1CCC2(NC1)OC1CC3[C@@H]4CC=C5C=CCC[C@]5(C)C4CC[C@]3(C)C1C2C (stereo partly drawn) | > 9.55 µM | > 9.55 µM | – |
| COc1ccccc1[B-]12OCC[N+]1(CNC(=O)C1=C(O)C3(O)C(=O)C4=C(O)c5c(O)cccc5C(C)(O)C4CC3C(N(C)C)C1=O)CCO2 (stereo not drawn) | > 27.5 µM | > 27.5 µM | – |
| COc1cc(OC)c(SSCCCCS(=O)O)c(OC)c1 | – | – | inactive |
| CCCCCOB(OCCCCC)OCCCCC | – | – | inactive |
| COc1ccc(CCN=C2OCc3ccccc32)cc1OC | > 200 µM | 11.7 µM | – |
| c1c[nH]c(-c2ccc(-c3ccc[nH]3)c3nsnc23)c1 | > 200 µM | > 200 µM | – |
| Cc1cn(C2C[C@@H](/[N+]([O-])=C\c3ccccc3)C(CO[Si](C)(C)C(C)(C)C)O2)c(=O)[nH]c1=O (stereo partly drawn) | > 200 µM | 24.5 µM | – |
| Cc1cc(C)n(-c2nsc3ccccc23)n1 | > 112 µM | > 112 µM | – |
| COc1ccccc1OCC(O)CO (stereo not drawn) | – | – | inactive |
| COC(=O)/C(=N\NC(=S)NN)C(C(=O)OC)C(=O)C(=O)Nc1cccc(C(F)(F)F)c1 (stereo not drawn) | > 537 µM | 240 µM | – |
| Cc1ccc(O)c(C(c2ccc([N+](=O)[O-])cc2)c2cc(C)ccc2O)c1 | – | – | inactive |
| O=C(O)CC1OC(=O)C(Br)=C1O (stereo not drawn) | > 1050 µM | > 1050 µM | – |
| CCSc1nc2c([nH]1)c(=S)n(C)c(=S)n2C | > 200 µM | 41.7 µM | – |
| O=c1oc2c3ccc4ccccc4c3n(CCN3CCCCC3)c2c2ccccc12 | > 8.71 µM | 6.76 µM | – |
| CC(=O)OC(CC1(C)C(C)CCC23COC(=O)C2=CCCC31)C1=CC(=O)OC1O (stereo not drawn) | > 447 µM | > 447 µM | – |
| C(=NCCSSCCN=Cc1ccccc1)c1ccccc1 | > 200 µM | 38.9 µM | – |
| Cc1nc2c(sc(=S)n2-c2ccccc2)c(=O)[nH]1 | > 91.2 µM | > 91.2 µM | – |
| CN1C(=O)C(c2c[nH]c3ccccc23)N(C)C(=O)C1c1c[nH]c2ccccc12 (stereo not drawn) | > 200 µM | > 200 µM | – |
| N#CC(NNC(=O)Cc1ccccc1)c1ccc([N+](=O)[O-])cc1 (stereo not drawn) | > 115 µM | > 115 µM | – |
| CN(C)CCNC(=O)Cn1ccc(=O)c2c([N+](=O)[O-])cccc21 | > 200 µM | > 200 µM | – |

| SMILES | EC50 | IC50 | outcome |
| --- | --- | --- | --- |
| CC(=O)NCCCCN(CCCNC(C)=O)C(=O)CNS(=O)(=O)c1cccc2c(N(C)C)cccc12 | > 200 µM | > 200 µM | – |
| CC(=O)OC1CCN(C)CC1CCl (stereo not drawn) | > 200 µM | > 200 µM | – |
| CCOC(=O)C(=O)/C=C(\C)Nc1c(NC2OCC(OC(C)=O)C(OC(C)=O)C2OC(C)=O)nc(SC)[nH]c1=O (stereo not drawn) | > 87.1 µM | > 87.1 µM | – |
| Cc1c(Cl)cccc1Nc1ncccc1C(=O)OCC(O)CO (stereo not drawn) | > 200 µM | 91.2 µM | – |
| CCCCCC/C(CC(=O)CCC(=O)NCCc1ccccc1)=N\NC(=O)c1ccc2ccccc2c1O | > 251 µM | 14.5 µM | – |
| CCOC(=O)c1nc2ccccc2nc1Nc1ccc(C(=O)OC)s1 | > 200 µM | > 200 µM | – |
| COc1ccc(Oc2c(OC)cc(NCc3ccc(CN)cc3)c3ncccc23)cc1 | > 200 µM | 27.5 µM | – |
| CC(=O)N1C2=CCCC2(C)c2ccccc21 (stereo not drawn) | > 200 µM | 56.2 µM | – |
| CC(C)(C)n1[se]c2ccccc2c1=O | > 129 µM | 9.33 µM | – |
| CC12COC3(C)CCC(C)(OC1)N23 (stereo not drawn) | > 490 µM | > 490 µM | – |
| COc1ccc(Nc2nc(NS(=O)(=O)c3cc(C)c(Cl)cc3S)n[nH]2)cc1 | 178 µM | 257 µM | – |
| COc1cc2oc(-c3ccc4c(c3)OCO4)c(OC)c(=O)c2c(OC)c1O | > 200 µM | > 200 µM | – |
| Cc1c(CCl)c(=O)oc2c(C)c3occ(CCl)c(=O)c3cc12 | > 11.2 µM | 4.9 µM | – |
| CCCCCCCCCCC(=O)CC(=O)c1c(O)cccc1O | – | – | inactive |
| COC(=O)C1C(C(=O)OC)C1(Br)CBr (stereo not drawn) | > 200 µM | 5.89 µM | – |
| CSCCC(NC(=O)C(CC(C)C)NC(=O)CNC(=O)OC(C)(C)C)C(=O)N(C)C (stereo not drawn) (Boc-Gly-Leu-Met-NMe2; configuration not given here) | > 200 µM | > 200 µM | – |
| CCOC(=O)C1=C(Nc2cccc(OC)c2)OCC1=O | > 200 µM | > 200 µM | – |
| CC1CC[C@H]2[C@@H]1[C@H]1[C@@H](CC[C@@]23CCc2ccccc2O3)C1(C)C (stereo partly drawn) | > 11.5 µM | > 11.5 µM | – |
| C[C@H]1c2cccc(O)c2C(O)=C2C(=O)[C@]3(O)C(O)=C(C(N)=O)C(=O)[C@@H](N(C)C)[C@@H]3[C@@H](O)[C@@H]21 | > 186 µM | 8.32 µM | – |
| O=C(N/N=C\c1ccco1)c1ccncc1 | > 200 µM | > 200 µM | – |
